A short description of data set [1]: Octanol-water partition co-efficient, log D of the compound by shake flask method. Format: physicochemical.
Data set [2] in a line: Dissociation constant, pKa of the compound. Format: physicochemical.
Data set [3] is described as follows: Intrinsic clearance in human liver microsomes. Format: ADME. To be noted: read-out: CLH. (In general: Liver microsomes are vesicles of endoplasmic reticulum, rich in cytochrome P450 enzymes.)
The nature of data set [4]: Solubility of the compound at pH 6.5. Format: physicochemical. The note with it: buffer.
The nature of data set [5]: Permeability in RRCK cells. Format: ADME, cell-based, Canis lupus familiaris, MDCKII-LE. To be noted: dog, MDCK; read-out: permeability.
Data set [6] in a line: Intrinsic clearance in rat liver microsomes. Format: ADME. The note with it: read-out: CLH.
Data set [7] can be described thus: Intrinsic clearance in dog hepatocytes assessed per 10^6 cells. Format: ADME, cell-based, Canis lupus familiaris, Hepatocyte.
A short description of data set [8]: Fraction unbound in rat plasma. Format: ADME, cell-free.
Data set [9] can be described thus: Fraction unbound in dog plasma. Format: ADME, cell-free, Canis lupus familiaris.
For data set [10], the target named is T1, Solute carrier organic anion transporter family member 1B1 (Homo sapiens, UniProt Q9Y6L6).
T1 sequence (Q9Y6L6 whole entry): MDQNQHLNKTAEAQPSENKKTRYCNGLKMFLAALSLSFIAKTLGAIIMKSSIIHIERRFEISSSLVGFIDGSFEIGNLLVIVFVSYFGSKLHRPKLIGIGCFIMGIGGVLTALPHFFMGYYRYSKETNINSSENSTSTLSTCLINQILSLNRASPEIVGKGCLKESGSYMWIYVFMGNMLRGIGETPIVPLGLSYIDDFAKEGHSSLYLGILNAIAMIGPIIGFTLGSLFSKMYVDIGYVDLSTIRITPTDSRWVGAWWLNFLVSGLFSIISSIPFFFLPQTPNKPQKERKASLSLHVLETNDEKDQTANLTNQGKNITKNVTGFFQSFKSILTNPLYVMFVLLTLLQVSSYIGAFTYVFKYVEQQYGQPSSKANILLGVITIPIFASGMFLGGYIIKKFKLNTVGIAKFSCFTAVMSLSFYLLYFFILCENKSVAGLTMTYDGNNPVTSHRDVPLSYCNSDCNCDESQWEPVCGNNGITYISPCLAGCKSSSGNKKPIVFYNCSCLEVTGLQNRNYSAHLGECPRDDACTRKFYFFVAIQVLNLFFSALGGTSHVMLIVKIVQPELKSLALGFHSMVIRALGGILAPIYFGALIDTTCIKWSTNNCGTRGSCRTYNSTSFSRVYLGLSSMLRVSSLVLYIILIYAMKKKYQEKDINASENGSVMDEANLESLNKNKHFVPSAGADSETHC
The data set can be described thus: Drug uptake assessed as human OATP1B1-mediated drug accumulation by cell-based assay relative to wild type protein. Format: ADME.

In data set [11] the target is T2, Solute carrier organic anion transporter family member 1B3 (Homo sapiens, UniProt Q9NPD5).
T2 sequence (Q9NPD5 whole entry): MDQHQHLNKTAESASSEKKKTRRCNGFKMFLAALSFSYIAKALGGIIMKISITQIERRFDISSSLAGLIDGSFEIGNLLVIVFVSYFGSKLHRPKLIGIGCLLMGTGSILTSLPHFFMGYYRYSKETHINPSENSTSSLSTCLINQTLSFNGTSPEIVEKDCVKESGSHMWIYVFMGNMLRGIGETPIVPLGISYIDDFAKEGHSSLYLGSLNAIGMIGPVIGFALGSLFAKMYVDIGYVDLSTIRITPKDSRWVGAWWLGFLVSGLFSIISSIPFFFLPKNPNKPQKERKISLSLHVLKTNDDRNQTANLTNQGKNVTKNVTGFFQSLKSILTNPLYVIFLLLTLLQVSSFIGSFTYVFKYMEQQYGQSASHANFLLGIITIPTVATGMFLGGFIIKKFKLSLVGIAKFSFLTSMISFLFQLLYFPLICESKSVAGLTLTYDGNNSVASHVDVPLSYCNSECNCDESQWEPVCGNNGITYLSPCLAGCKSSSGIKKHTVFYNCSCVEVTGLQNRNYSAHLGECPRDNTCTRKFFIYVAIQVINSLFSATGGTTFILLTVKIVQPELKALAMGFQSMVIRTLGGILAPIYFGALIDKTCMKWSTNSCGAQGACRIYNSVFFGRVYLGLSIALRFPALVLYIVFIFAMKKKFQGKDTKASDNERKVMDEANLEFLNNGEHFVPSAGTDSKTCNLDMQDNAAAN
The data set can be described thus: Drug uptake assessed as human OATP1B3-mediated drug accumulation by cell-based assay relative to wild type protein. Format: ADME.

Data set [12] has as its target T3, Solute carrier organic anion transporter family member 2B1 (Homo sapiens, UniProt O94956).
T3 sequence (O94956 whole entry): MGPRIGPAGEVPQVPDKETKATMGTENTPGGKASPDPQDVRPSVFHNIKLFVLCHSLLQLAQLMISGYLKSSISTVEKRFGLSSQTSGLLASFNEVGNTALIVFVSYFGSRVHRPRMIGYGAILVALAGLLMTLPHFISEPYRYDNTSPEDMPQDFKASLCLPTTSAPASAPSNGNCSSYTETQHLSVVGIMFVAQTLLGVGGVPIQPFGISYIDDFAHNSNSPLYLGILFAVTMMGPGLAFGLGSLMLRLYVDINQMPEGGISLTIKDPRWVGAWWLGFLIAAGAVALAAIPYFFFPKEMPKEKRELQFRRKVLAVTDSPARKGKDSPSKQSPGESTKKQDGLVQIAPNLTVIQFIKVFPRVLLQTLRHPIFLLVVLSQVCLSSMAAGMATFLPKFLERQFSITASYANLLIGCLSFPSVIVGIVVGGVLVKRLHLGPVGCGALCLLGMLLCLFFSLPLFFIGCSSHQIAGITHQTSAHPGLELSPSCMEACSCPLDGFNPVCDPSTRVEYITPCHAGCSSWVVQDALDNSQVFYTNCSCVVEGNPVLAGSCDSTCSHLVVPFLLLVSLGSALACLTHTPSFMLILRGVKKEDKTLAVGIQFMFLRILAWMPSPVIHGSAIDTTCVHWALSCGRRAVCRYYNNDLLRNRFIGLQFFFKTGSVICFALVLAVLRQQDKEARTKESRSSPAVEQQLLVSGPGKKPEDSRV
The data set can be described thus: Drug uptake assessed as human OATP2B1-mediated drug accumulation by cell-based assay relative to wild type protein. Format: ADME.

Data set [13] is described as follows: Cytotoxicity against THLE cells. To be noted: human. Format: toxicity, cell-based.
The nature of data set [14]: Mutagenicity in […] by Ames test in absence of […]. Format: toxicity. (In general: The Ames test uses bacterial strains that need an amino acid and regain growth without it when mutated back.)
In data set [15] the target is Voltage-gated inwardly rectifying potassium channel KCNH2 (Homo sapiens, UniProt Q12809). Briefly: Inhibition of human ERG by patch clamp method. On the technique in general: Patch clamp records ionic current or voltage across a cell membrane.
A short description of data set [16]: Plasma clearance in rat at 1 mg/kg, iv and 3 mg/kg, po. Format: ADME, organism-based.
Data set [17] is described as follows: Unbound clearance in rat at 1 mg/kg, iv and 3 mg/kg, po. Format: ADME, organism-based. To be noted: in vivo.
Data set [18] can be described thus: Half life in rat at 1 mg/kg, iv and 3 mg/kg, po. Format: ADME, organism-based. To be noted: in vivo.
The nature of data set [19]: Renal clearance in dog at 0.363 mg/kg, iv and 0.737 mg/kg, po relative to GFR x fraction unbound. Format: ADME, organism-based, Canis lupus familiaris. The note with it: in vivo.
Data set [20] can be described thus: Renal clearance in dog at 1 mg/kg, iv and 3 mg/kg, po relative to GFR x fraction unbound. Format: ADME, organism-based, Canis lupus familiaris. To be noted: in vivo.

Values after ≈ are worked out from the molar mass of the structure shown.

Usually logD stands for the decadic logarithm of the distribution of all forms, ionised or not, between an organic phase and buffer at a given pH. Higher therefore signals a more lipophilic compound. The term pKa denotes the pH at which an ionisable group is half protonated. Higher therefore signals a group that holds its proton tightly. What is called solubility is how much of the substance goes into solution per volume. A low value points to a poorly soluble substance. Broadly, the fraction unbound is free concentration divided by total concentration. A high value points to much free substance. The IC50 is the concentration needed to halve the response being measured. Lower therefore signals higher potency. One may read the half-life as the time needed for the level to fall by half in the phase considered. A higher half-life goes with slow decline.

Chain of Voltage-gated inwardly rectifying potassium channel KCNH2 (Q12809 whole entry): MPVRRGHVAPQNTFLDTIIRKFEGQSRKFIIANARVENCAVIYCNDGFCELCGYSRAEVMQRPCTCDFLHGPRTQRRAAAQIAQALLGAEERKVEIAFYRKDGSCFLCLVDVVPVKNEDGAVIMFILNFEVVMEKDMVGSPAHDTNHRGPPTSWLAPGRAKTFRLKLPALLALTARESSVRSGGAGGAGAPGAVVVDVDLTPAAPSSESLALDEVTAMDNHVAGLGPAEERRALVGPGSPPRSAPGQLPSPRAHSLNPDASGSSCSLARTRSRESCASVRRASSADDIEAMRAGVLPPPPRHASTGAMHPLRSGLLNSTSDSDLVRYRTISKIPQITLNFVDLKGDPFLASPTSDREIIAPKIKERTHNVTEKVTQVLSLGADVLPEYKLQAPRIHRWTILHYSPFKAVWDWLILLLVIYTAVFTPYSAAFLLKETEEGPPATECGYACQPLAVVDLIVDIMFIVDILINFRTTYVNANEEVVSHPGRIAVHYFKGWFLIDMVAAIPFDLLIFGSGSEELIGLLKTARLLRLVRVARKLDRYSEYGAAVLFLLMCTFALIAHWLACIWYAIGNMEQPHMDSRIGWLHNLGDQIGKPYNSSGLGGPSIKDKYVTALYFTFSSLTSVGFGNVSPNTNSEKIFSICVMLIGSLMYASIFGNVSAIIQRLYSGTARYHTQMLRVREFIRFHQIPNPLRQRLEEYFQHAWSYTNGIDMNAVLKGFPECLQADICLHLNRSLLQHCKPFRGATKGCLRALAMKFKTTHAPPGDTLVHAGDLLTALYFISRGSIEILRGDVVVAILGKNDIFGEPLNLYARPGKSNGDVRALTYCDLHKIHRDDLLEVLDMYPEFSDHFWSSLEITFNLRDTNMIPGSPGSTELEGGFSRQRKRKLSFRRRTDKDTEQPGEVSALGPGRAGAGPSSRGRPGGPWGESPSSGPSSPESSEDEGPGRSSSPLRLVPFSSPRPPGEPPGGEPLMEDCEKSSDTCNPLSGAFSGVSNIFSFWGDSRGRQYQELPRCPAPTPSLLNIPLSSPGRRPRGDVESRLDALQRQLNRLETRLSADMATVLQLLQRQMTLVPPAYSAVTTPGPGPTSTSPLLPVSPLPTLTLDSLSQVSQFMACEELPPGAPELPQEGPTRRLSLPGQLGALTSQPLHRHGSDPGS

In the case of `O=S(=O)(Nc1cncc(C(F)(F)F)c1)c1ccccc1C(F)(F)F`, the logD in data set [1] was 1.5. Besides, the pKa in [2] was determined as 5.2. The microsomal CLint is 11 µL/min/mg in data set [3] and 35 µL/min/mg in data set [6]. The solubility in data set [4] worked out at 489 µM (≈ 181 µg/mL). Besides, the Papp in data set [5] is 21 ×10⁻⁶ cm/s. Moreover, the CLH in data set [7] was below 6 µL/min/1e6 cells. Moreover, the figures for the fraction unbound in [8] and in [9] were 0.0017 and 0.057, respectively. The “fold change (FC)” value in data set [10] worked out at 0.573; in data set [11], 0.702; in data set [12] it was 0.961. Further, the Activity in [13] was 228 µM; in [14], “Non-Toxic”. Moreover, the IC50 in data set [15] was above 100 µM. In [16], this molecule displayed a clearance of 0.55 mL/min/kg. Further, in data set [17], the CL free turned out to be 324 mL/min/kg. This molecule gave a half-life in [18] of 3.3 h. The CL in data set [19] and in [20] was below 2% throughout.
For `O=S(=O)(Nc1ccc(C(F)(F)F)nc1)c1ccccc1C(F)(F)F`, the logD in data set [1] worked out at 1.4. The same molecule registered a pKa in data set [2] of 5.1. Further, the microsomal CLint in data set [3] was below 8 µL/min/mg; in data set [6], below 14 µL/min/mg. Besides, in data set [4], the solubility amounted to 620 µM (≈ 230 µg/mL). In addition, the Papp in [5] amounted to 27 ×10⁻⁶ cm/s. The CLH in [7] was below 6 µL/min/1e6 cells. In addition, the figures for the fraction unbound in data set [8] and in [9] were 0.0045 and 0.01, respectively. The “fold change (FC)” value in data set [10] is listed as 0.902; in data set [11], 0.582; in [12], 1.145. The results for the Activity in data set [13] and in data set [14] were 153 µM and “Non-Toxic”, respectively. This molecule also displayed an IC50 in [15] above 100 µM. This molecule also came in with a clearance in data set [16] of 0.18 mL/min/kg. The CL free in [17] came out at 41 mL/min/kg. In [18], the half-life was 27.3 h. Further, the CL in data set [19] and in [20] was below 2% each time.
